Laboratory results reported in patent US20110060053A1, “Crystalline Modifications of 6-Dimethylaminomethyl-1-(3-methoxyphenyl)-cyclohexane-1,3-diol” (Gruenenthal GmbH, priority 2002, published 2011).

Assay: thermodynamic stability of the crystalline modifications
Assay type: physicochemical
Conditions: in particular in the temperature range of −20° C. to 120° C.

For COc1cccc([C@@]2(O)C[C@H](O)CC[C@@H]2CN(C)C)c1 (racemic) [Crystalline modification A, (1RS,3RS,6RS)-6-dimethylaminomethyl-1-(3-methoxyphenyl)-cyclohexan-1,3-diol], the thermodynamic stability was “most thermodynamically stable form”.
